Results taken from patent US10899793B2, “Melanocortin ligands and methods of use thereof” (priority 2016, dated 2021).
Square brackets hold non-standard residues; d marks the D form. Peptide text beside a SMILES is read from it. Bip = N[C@@H](Cc1ccc(-c2ccccc2)cc1)C(=O)O; dPhe(4-I) = N[C@H](Cc1ccc(I)cc1)C(=O)O; 2Nal = N[C@@H](Cc1ccc2ccccc2c1)C(=O)O; d2Nal = N[C@H](Cc1ccc2ccccc2c1)C(=O)O; Bta = N[C@@H](Cc1csc2ccccc12)C(=O)O; Tic = O=C(O)[C@@H]1Cc2ccccc2CN1

Columns and labels:
mMC3R [1] = target: T1, mMC3R (Mus musculus, UniProt P33033); settings: Table 1; Schild analysis, pA2 = -Log(Ki); Full Agonist = full dose-response, No Activity = no shift in EC50
T1 sequence (P33033 whole entry): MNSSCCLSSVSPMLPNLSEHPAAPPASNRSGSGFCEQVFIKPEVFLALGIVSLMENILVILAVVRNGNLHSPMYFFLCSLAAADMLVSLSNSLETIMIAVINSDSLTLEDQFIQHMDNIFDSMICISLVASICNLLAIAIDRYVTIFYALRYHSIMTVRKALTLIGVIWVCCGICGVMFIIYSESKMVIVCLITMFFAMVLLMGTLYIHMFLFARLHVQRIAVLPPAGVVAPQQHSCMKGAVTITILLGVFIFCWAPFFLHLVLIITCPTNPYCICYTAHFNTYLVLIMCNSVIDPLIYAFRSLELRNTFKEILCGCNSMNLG

mMC4R = mMC4R (Mus musculus, UniProt P56450); settings: for mMC4R Antagonist pA2 ± SEM: Table 1, Schild analysis, pA2 = -Log(Ki)
Chain of mMC4R (P56450 whole entry): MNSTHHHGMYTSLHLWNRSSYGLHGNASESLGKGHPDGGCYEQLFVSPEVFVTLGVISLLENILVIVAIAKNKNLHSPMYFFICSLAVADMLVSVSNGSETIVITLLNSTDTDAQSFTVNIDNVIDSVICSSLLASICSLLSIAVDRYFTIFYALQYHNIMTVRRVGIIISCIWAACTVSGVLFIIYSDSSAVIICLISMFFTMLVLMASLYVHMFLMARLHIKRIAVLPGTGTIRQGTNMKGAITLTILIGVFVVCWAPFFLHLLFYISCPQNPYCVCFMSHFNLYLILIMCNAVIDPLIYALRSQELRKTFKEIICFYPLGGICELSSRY

mMC3R [2] = target: T1, mMC3R; assay: AlphaScreen cAMP agonist assay at mMC3R; settings: Table 1; @ 100 μM
mMC5R = mMC5R (Mus musculus, UniProt P41149); assay: AlphaScreen cAMP agonist assay at mMC5R; settings: read-out: percent of the NDP-MSH maximal positive control, Table 2
Chain of mMC5R (P41149 whole entry): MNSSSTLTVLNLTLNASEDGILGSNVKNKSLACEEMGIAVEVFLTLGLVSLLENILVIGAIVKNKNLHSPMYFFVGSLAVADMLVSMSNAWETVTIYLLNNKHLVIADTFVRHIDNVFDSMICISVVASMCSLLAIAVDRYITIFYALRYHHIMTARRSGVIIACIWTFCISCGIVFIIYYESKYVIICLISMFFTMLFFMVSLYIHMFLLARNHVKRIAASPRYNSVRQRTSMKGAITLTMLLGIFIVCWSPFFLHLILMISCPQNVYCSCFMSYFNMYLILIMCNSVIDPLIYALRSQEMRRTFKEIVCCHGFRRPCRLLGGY

CC(=O)N[C@@H](Cc1ccc2ccccc2c1)C(=O)N[C@@H](CCCNC(=N)N)C(=O)N[C@H](Cc1ccc(I)cc1)C(=O)N[C@@H](Cc1ccc(-c2ccccc2)cc1)C(N)=O [SKY4-48-8, Ac-Nal(2′)-Arg-(pI)DPhe-Bip-NH2] (Ac-[2Nal]R[dPhe(4-I)][Bip]-NH2)
mMC3R Antagonist pA2 ± SEM (mMC3R [1]): Full Agonist | mMC4R Antagonist pA2 ± SEM (mMC4R): Full Agonist

CC(=O)N[C@@H](Cc1ccc(-c2ccccc2)cc1)C(=O)N[C@@H](CCCNC(=N)N)C(=O)N[C@H](Cc1ccc(I)cc1)C(=O)N[C@@H](Cc1csc2ccccc12)C(N)=O [SKY4-48-12, Ac-Bip-Arg-(pI)DPhe-3Bal-NH2] (Ac-[Bip]R[dPhe(4-I)][Bta]-NH2)
mMC3R Antagonist pA2 ± SEM (mMC3R [1]): Full Agonist | mMC4R Antagonist pA2 ± SEM (mMC4R): No Activity

CC(=O)N[C@@H](Cc1csc2ccccc12)C(=O)N[C@@H](CCCNC(=N)N)C(=O)N[C@H](Cc1ccc(I)cc1)C(=O)N[C@@H](Cc1csc2ccccc12)C(N)=O [SKY4-48-13, Ac-3Bal-Arg-(pI)DPhe-3Bal-NH2] (Ac-[Bta]R[dPhe(4-I)][Bta]-NH2)
mMC3R Antagonist pA2 ± SEM (mMC3R [1]): Full Agonist

CC(=O)N[C@@H](Cc1ccc2ccccc2c1)C(=O)N[C@@H](CCCNC(=N)N)C(=O)N[C@H](Cc1ccc(I)cc1)C(=O)N[C@@H](Cc1csc2ccccc12)C(N)=O [SKY4-48-16, Ac-Nal(2′)-Arg-(pI)DPhe-3Bal-NH2] (Ac-[2Nal]R[dPhe(4-I)][Bta]-NH2)
mMC3R Antagonist pA2 ± SEM (mMC3R [1]): Full Agonist

CC(=O)N[C@@H](Cc1ccc(-c2ccccc2)cc1)C(=O)N[C@@H](CCCNC(=N)N)C(=O)N[C@H](Cc1ccc(I)cc1)C(=O)N1Cc2ccccc2C[C@H]1C(N)=O [SKY4-48-20, Ac-Bip-Arg-(pI)DPhe-Tic-NH2] (Ac-[Bip]R[dPhe(4-I)][Tic]-NH2)
mMC3R Antagonist pA2 ± SEM (mMC3R [1]): Full Agonist

CC(=O)N[C@@H](Cc1ccc(-c2ccccc2)cc1)C(=O)N[C@@H](CCCNC(=N)N)C(=O)N[C@H](Cc1ccc(I)cc1)C(=O)N[C@@H](Cc1ccccc1)C(N)=O [SKY4-48-28, Ac-Bip-Arg-(pI)DPhe-Phe-NH2] (Ac-[Bip]R[dPhe(4-I)]F-NH2)
mMC3R Antagonist pA2 ± SEM (mMC3R [1]): No Activity | mMC3R Agonist, percent of the NDP-MSH maximal positive control (mMC3R [2]): 77% @ 100 μM | activation at 100 µM (mMC5R): 69%

CC(=O)N1Cc2ccccc2C[C@H]1C(=O)N[C@@H](CCCNC(=N)N)C(=O)N[C@H](Cc1ccc(I)cc1)C(=O)N[C@@H](Cc1ccccc1)C(N)=O [SKY4-48-30, Ac-Tic-Arg-(pI)DPhe-Phe-NH2] (Ac-[Tic]R[dPhe(4-I)]F-NH2)
mMC3R Antagonist pA2 ± SEM (mMC3R [1]): No Activity | mMC4R Antagonist pA2 ± SEM (mMC4R): No Activity | activation at 100 µM (mMC5R): 21%

CC(=O)N[C@@H](Cc1ccccc1)C(=O)N[C@@H](CCCNC(=N)N)C(=O)N[C@H](Cc1ccc(I)cc1)C(=O)N[C@@H](Cc1ccccc1)C(N)=O [SKY4-48-31, Ac-Phe-Arg-(pI)DPhe-Phe-NH2] (Ac-FR[dPhe(4-I)]F-NH2)
mMC3R Antagonist pA2 ± SEM (mMC3R [1]): No Activity | mMC4R Antagonist pA2 ± SEM (mMC4R): No Activity | mMC3R Agonist, percent of the NDP-MSH maximal positive control (mMC3R [2]): 50% @ 100 μM | activation at 100 µM (mMC5R): 52%

CC(=O)N[C@@H](Cc1ccc2ccccc2c1)C(=O)N[C@@H](CCCNC(=N)N)C(=O)N[C@H](Cc1ccc(I)cc1)C(=O)N[C@@H](Cc1ccccc1)C(N)=O [SKY4-48-32, Ac-Nal(2′)-Arg-(pI)DPhe-Phe-NH2] (Ac-[2Nal]R[dPhe(4-I)]F-NH2)
mMC3R Antagonist pA2 ± SEM (mMC3R [1]): No Activity | mMC4R Antagonist pA2 ± SEM (mMC4R): No Activity | mMC3R Agonist, percent of the NDP-MSH maximal positive control (mMC3R [2]): 42% @ 100 μM | activation at 100 µM (mMC5R): 49%

CC(=O)N[C@H](Cc1ccc2ccccc2c1)C(=O)N[C@@H](CCCNC(=N)N)C(=O)N[C@H](Cc1ccc(I)cc1)C(=O)N[C@@H](Cc1ccccc1)C(N)=O [SKY4-48-33, Ac-DNal(2′)-Arg-(pI)DPhe-Phe-NH2] (Ac-[d2Nal]R[dPhe(4-I)]F-NH2)
antagonist pA2 at the mMC4R (mMC4R): 6.9

CC(=O)N[C@@H](CCCNC(=N)N)C(=O)N[C@@H](CCCNC(=N)N)C(=O)N[C@H](Cc1ccc(I)cc1)C(=O)N[C@@H](Cc1ccc2ccccc2c1)C(N)=O [SKY4-48-34, Ac-Arg-Arg-(pI)DPhe-Nal(2′)-NH2]
mMC3R Agonist, percent of the NDP-MSH maximal positive control (mMC3R [2]): 51% @ 100 μM

CC(=O)N[C@@H](Cc1csc2ccccc12)C(=O)N[C@@H](CCCNC(=N)N)C(=O)N[C@H](Cc1ccc(I)cc1)C(=O)N[C@@H](Cc1ccc2ccccc2c1)C(N)=O [SKY4-48-37, Ac-3Bal-Arg-(pI)DPhe-Nal(2′)-NH2] (Ac-[Bta]R[dPhe(4-I)][2Nal]-NH2)
mMC3R Antagonist pA2 ± SEM (mMC3R [1]): No Activity | mMC4R Antagonist pA2 ± SEM (mMC4R): No Activity | activation at 100 µM (mMC5R): 50%

CC(=O)N[C@@H](Cc1ccccc1)C(=O)N[C@@H](CCCNC(=N)N)C(=O)N[C@H](Cc1ccc(I)cc1)C(=O)N[C@@H](Cc1ccc2ccccc2c1)C(N)=O [SKY4-48-39, Ac-Phe-Arg-(pI)DPhe-Nal(2′)-NH2] (Ac-FR[dPhe(4-I)][2Nal]-NH2)
mMC3R Antagonist pA2 ± SEM (mMC3R [1]): No Activity | mMC3R Agonist, percent of the NDP-MSH maximal positive control (mMC3R [2]): 44% @ 100 μM | activation at 100 µM (mMC5R): 61%

CC(=O)N[C@@H](Cc1ccc2ccccc2c1)C(=O)N[C@@H](CCCNC(=N)N)C(=O)N[C@H](Cc1ccc(I)cc1)C(=O)N[C@@H](Cc1ccc2ccccc2c1)C(N)=O [SKY4-48-40, Ac-Nal(2′)-Arg-(pI)DPhe-Nal(2′)-NH2] (Ac-[2Nal]R[dPhe(4-I)][2Nal]-NH2)
mMC3R Antagonist pA2 ± SEM (mMC3R [1]): No Activity | mMC4R Antagonist pA2 ± SEM (mMC4R): No Activity | mMC3R Agonist, percent of the NDP-MSH maximal positive control (mMC3R [2]): 39% @ 100 μM | activation at 100 µM (mMC5R): 45%

CC(=O)N[C@@H](Cc1ccc(-c2ccccc2)cc1)C(=O)N[C@@H](CCCNC(=N)N)C(=O)N[C@H](Cc1ccc(I)cc1)C(=O)N[C@H](Cc1ccc2ccccc2c1)C(N)=O [SKY4-48-44, Ac-Bip-Arg-(pI)DPhe-DNal(2′)-NH2] (Ac-[Bip]R[dPhe(4-I)][d2Nal]-NH2)
mMC3R Antagonist pA2 ± SEM (mMC3R [1]): No Activity | mMC4R Antagonist pA2 ± SEM (mMC4R): No Activity | mMC3R Agonist, percent of the NDP-MSH maximal positive control (mMC3R [2]): 32% @ 100 μM | activation at 100 µM (mMC5R): 55%

CC(=O)N[C@@H](Cc1ccccc1)C(=O)N[C@@H](CCCNC(=N)N)C(=O)N[C@H](Cc1ccc(I)cc1)C(=O)N[C@H](Cc1ccc2ccccc2c1)C(N)=O [SKY4-48-47, Ac-Phe-Arg-(pI)DPhe-DNal(2′)-NH2] (Ac-FR[dPhe(4-I)][d2Nal]-NH2)
mMC3R Antagonist pA2 ± SEM (mMC3R [1]): No Activity | mMC3R Agonist, percent of the NDP-MSH maximal positive control (mMC3R [2]): 22% @ 100 μM | activation at 100 µM (mMC5R): 39%

CC(=O)N[C@@H](Cc1c[nH]cn1)C(=O)N[C@@H](CCCNC(=N)N)C(=O)N[C@H](Cc1ccc(I)cc1)C(=O)N[C@@H](Cc1ccccc1)C(N)=O [SKY5-146-3, Ac-His-Arg-(pI)DPhe-Phe-NH2] (Ac-HR[dPhe(4-I)]F-NH2)
mMC3R Antagonist pA2 ± SEM (mMC3R [1]): Full Agonist

CC(=O)N[C@@H](Cc1csc2ccccc12)C(=O)N[C@@H](CCCNC(=N)N)C(=O)N[C@H](Cc1ccc(I)cc1)C(=O)N[C@@H](Cc1ccccc1)C(N)=O [SKY5-146-4, Ac-3Bal-Arg-(pI)DPhe-Phe-NH2] (Ac-[Bta]R[dPhe(4-I)]F-NH2)
mMC3R Antagonist pA2 ± SEM (mMC3R [1]): No Activity | mMC4R Antagonist pA2 ± SEM (mMC4R): No Activity | mMC3R Agonist, percent of the NDP-MSH maximal positive control (mMC3R [2]): 37% @ 100 μM | activation at 100 µM (mMC5R): 35%
